Measurements reported in patent US20250123269A1 (priority 2023, published 2025).

Tests used:
[1] = system: SARS-COV-2 B.1.617.2 delta; format: cell-based
[2] = system: SARS-COV-2 B.1.1.529 omicron; format: cell-based

Cc1c(O)cccc1C(=O)N[C@@H](CSc1ccccc1)[C@H](O)CN1C[C@H]2CCCC[C@H]2C[C@H]1C(=O)NC(C)(C)C [nelfinavir]
dose-dependent inhibition of infection [1]: dose-dependent inhibition of infection | inhibition of infection [1]: did not completely inhibit infection | dose-dependent inhibition of infection [2]: dose-dependent inhibition of infection | inhibition of infection [2]: did not completely inhibit infection

CC(C)(C)[C@H](NC(=O)C(F)(F)F)C(=O)N1C[C@H]2[C@@H]([C@H]1C(=O)N[C@H](C#N)C[C@@H]1CCNC1=O)C2(C)C [nirmatrelvir, Nirmatrelvir]
dose-dependent inhibition of infection [1]: dose-dependent inhibition of infection | reduction of infection [1]: 50% | dose-dependent inhibition of infection [2]: dose-dependent inhibition of infection | inhibition of infection [2]: nearly completely inhibited

O=c1nc(NO)ccn1[C@@H]1O[C@H](CO)[C@@H](O)[C@H]1O [EIDD-1931]
dose-dependent inhibition of infection [1]: dose-dependent inhibition of infection | inhibition of infection [1]: complete inhibition | reduction of infection [1]: at least 50% | dose-dependent inhibition of infection [2]: dose-dependent inhibition of infection | inhibition of infection [2]: complete inhibition | reduction of infection [2]: at least 50%
